PMC8397403, “Physiologically Based Pharmacokinetic Modeling of Transporter-Mediated Hepatic Disposition of Imaging Biomarker Gadoxetate in Rats” (Molecular Pharmaceutics, 2021)
“And” between values parts separate entries of the source, which are not always exact repeats. Equal entries are not always repeated. Marks after values point to notes of the source that are not given here.

How the values were obtained:
[1] = Bottom-up IVIVE of gadoxetate transporter kinetic data / PBPK model; parameters: species or system rat
Experimental: IVIVE of gadoxetate CLactive,u and CLpassive,u was performed by scaling these parameters to in vivo values (CLactive,u,in vivo and CLpassive,u,in vivo; mL/min/kg body weight) using a hepatocellularity of 120 × 10^6 cells/g liver,[34] and a liver weight (wliver) of 40 g/kg body weight,[38] as in eq 3. [drawing 3] 3
(§1) A reduced PBPK model was developed to describe the PK of gadoxetate in rats; a permeability-limited liver model was implemented capturing relevant processes, as done previously.[6],[41] The compartments represent the blood, spleen, splanchnic organs, liver interstitial space, hepatocytes, and the rest of the body (ROB) vascular and extravascular spaces. The ROB compartment includes muscles, skin, bones, and fat among others. Details of model equations and physiological parameters values are reported in the Supporting Information, Sections 2, 3, and 5.
(§2) Standard kinetic models used for MRI contrast agents generally describe the organs by using three compartments: plasma, interstitial, and intracellular spaces.[12],[42],[43] Gadoxetate distributes only in the extracellular space of all the organs; liver is the exception, where gadoxetate undergoes active uptake into the hepatocytes.[44] Therefore, in the gadoxetate PBPK model, the volume of all the compartments, except the blood and the liver, corresponded to the organ extracellular space, that in turn was considered to be composed of the blood within the organ and the interstitial space. For highly vascularized and perfused organs with fenestrated capillaries (e.g., liver), the exchange between the plasma and the interstitial space is generally considered to be fast.[12],[19] Therefore, for liver, spleen, and splanchnic compartments, the extracellular volumes were considered to be the sum of the blood within the organ and the interstitial space volumes. […] A permeability limitation between the vascular and interstitial space was, therefore, assumed for the ROB compartment, as shown in eq 5. [drawing 5] 5 cb, crob,v and crob,ev [μmol/L] are the gadoxetate concentration in blood and ROB vascular and extravascular compartments; Vrob,v and Vrob,ev [L] are the ROB vascular and extravascular compartment volumes, respectively; and PS [L/h] is the permeability surface product.
To describe the gadoxetate-active uptake into the hepatocytes, a permeability-limited liver model was used, as shown in eq 6. [drawing 6] 6 inputsplan [μmol/h] represent the venous input from the splanchnic organs, while inputart [μmol/h] is the input from the hepatic artery; cliv,extr and cliv,cell [μmol/L] are the drug concentrations in the extracellular liver (tissue blood plus interstitial space) and in the hepatocytes, respectively; Vliv,extr and Vliv,int [L] are the extracellular and hepatocytes liver volumes; Qh [L/h] is the liver blood flow; Kliv,extr-b is the extracellular liver to blood partition coefficient; CLactive and CLpassive [L/h] are the active and passive clearances across the hepatocytes cell membrane; CLbiliary [L/h] is the clearance representing the excretion from the hepatocytes into the bile; and fu,liv,cell is the gadoxetate fraction unbound in the hepatocytes (obtained from the in vitro generated data fu,cell). Recent PBPK studies of hepatic transporter substrates have used a 5-compartment liver model[45] and the use of this particular liver model was also explored in the current PBPK modeling.
All the parameters were initially obtained using literature values and in vitro experiments. Prospective transporter clearance IVIVE was performed with the aim of predicting the gadoxetate ΔR1 in blood, spleen, and liver after administration of gadoxetate alone (in the absence of an inhibitor). CLactive, CLpassive, and fu,liv,cell were obtained from the in vitro experimental values obtained in this study, as detailed in the section “Data Analysis and Quantitative Translation”. CLr was fixed to a literature value, as in Table 3. […]

[2] = Top-down PBPK model fitting to DCE-MRI ΔR1 data, gadoxetate administered alone; assay type: in vivo, rat
Experimental: DCE–MRI data generated using the 3D Fast Low Angle Shot RF-spoiled gradient echo sequence (FLASH) protocol in male Wistar-Han rats were used for assessing the PBPK IVIVE performances and for obtaining some of the PBPK parameters within the bottom-up and top-down approaches, respectively. The DCE–MRI data were acquired in a multicenter study at two magnetic field strengths, 4.7 and 7 T. Gadoxetate was administered at a dose of 25 μmol/kg, either alone or 1 h after IV administration of 10 mg/kg rifampicin. When gadoxetate was administered alone (control arm), 43 profiles of blood, spleen, and liver measured at a field strength of 4.7 T and 52 profiles of blood, spleen, and liver measured at 7 T were available. In the case of gadoxetate administered with rifampicin, 7 blood, spleen, and liver profiles at a field strength equal to 4.7 T and 6 at 7 T were available. All gadoxetate DCE–MRI data and study protocols are detailed in a companion paper (Hines et al. in submission).
The measured quantity in DCE–MRI is ΔR1 (s^–1), the change of the water proton longitudinal relaxation rate, a magnetic property of the tissues, due to the presence of the contrast agent. In sufficiently homogeneous tissues, the tissue concentration of the contrast agent as a function of time, c(t), can be derived from ΔR1(t). The relationship between c(t) and ΔR1(t) depends on the physical interactions between the contrast agent molecules and the tissue.[39] For a given tissue τ, the relation between ΔR1,τ(t) and cτ(t) is generally considered to be linear, as in eq 4.[39],[40] [drawing 4] 4
as §1
as §2, with “product. […]” for “product.”

[3] = scaled from in vitro, 120 × 10^6 cells/g liver, 40 g liver/kg
[4] = fit to blood, spleen and liver ΔR1, gadoxetate alone, mean (CV %) of 1000 bootstrap samples
[5] = gadoxetate alone, blood data only, value (CV)
[6] = gadoxetate alone, blood, spleen, liver ΔR1, CLr also estimated, value (CV)

SMILES: CCOc1ccc(C[C@@H](CN(CCN(CC(=O)[O-])CC(=O)[O-])CC(=O)[O-])N(CC(=O)[O-])CC(=O)[O-])cc1.[Gd+3].[H+].[H+] [gadoxetate]
- CLbiliary, bottom-up scaled value ([1]; Monte Carlo mean, value assumed equal to CLpassive): 0.014 ^a^, ^c L/h
- CLactive, bottom-up scaled value ([1]; mean value calculated from the Monte Carlo analysis, rat 0.25 kg): 0.23 ^a L/h
- PS, bottom-up scaled value ([1]; permeability surface product, Monte Carlo mean, value assumed equal to CLpassive): 0.014 ^a^, ^c L/h
- predicted in vivo active uptake clearance (CLactive,u,in vivo) [1, 3]: 14.7 mL/min/kg body weight
- predicted in vivo passive clearance (CLpassive,u,in vivo) [1, 3]: 0.93 mL/min/kg body weight
- CLpassive ([1]; scaled from the mean in vitro value in Table 2, fixed in PBPK model): 0.014 L/h
- CLactive, top-down estimate ([2]; fit to blood, spleen and liver ΔR1, gadoxetate alone 25 μmol/kg, mean (CV %) of 1000 bootstrap samples): 2.17 (11.5%) ^b L/h
- CLbiliary, top-down estimate [2, 4]: 0.07 (3.2%) ^b L/h
- PS, top-down estimate [2, 4]: 0.62 (6.3%) ^b L/h
- CLactive, estimated only with ΔR1 blood data [2, 5]: 1.88 (23.2 %) L/h and 1.88 L/h
- PS, estimated only with ΔR1 blood data [2, 5]: 1.92 (20.8 %) L/h and 1.92 L/h
- CLactive, simultaneous estimation with CLr [2, 6]: practically unidentifiable
- CLbiliary, simultaneous estimation with CLr [2, 6]: 0.07 (2.6 %) L/h
- PS, simultaneous estimation with CLr [2, 6]: 0.58 (8.3 %) L/h
- CLactive, simultaneous estimation with CLr ([2]; gadoxetate alone, blood, spleen, liver ΔR1, CLr also estimated, value (CV), listed as Gadoxetate): 3.11 (>1000 %) L/h
- CLr, estimated ([2]; gadoxetate alone, blood, spleen, liver ΔR1, value (CV)): 0.40 (24.6 %) L/h
